Reference: ChEMBL document CHEMBL3580627, “Dibenzazepines and dibenzoxazepines as sodium channel blockers” (Bioorg Med Chem Lett, 2014)
≈ marks a conversion by molar mass, not a printed value.

Key:
[1] = Kinetic solubility of the compound at pH 1.2; assay type: physicochemical; conditions: buffer, read-out: Kinetic_solubility
[2] = Kinetic solubility of the compound at pH 6.8; assay type: physicochemical; conditions: buffer, read-out: Kinetic_solubility
[3] = in vitro; conditions: rat, liver microsomes
Description: Metabolic stability in rat liver microsomes assessed as compound remaining at 1 uM after 30 mins

[4] = in vitro; conditions: human, liver microsomes
Description: Metabolic stability in human liver microsomes assessed as compound remaining at 1 uM after 30 mins

[5] = target: T1, Sodium channel protein type 9 subunit alpha (Homo sapiens, UniProt Q15858); test: Inhibition of Nav1.7 (unknown origin) by electrophysiological assay
T1 sequence (Q15858 whole entry): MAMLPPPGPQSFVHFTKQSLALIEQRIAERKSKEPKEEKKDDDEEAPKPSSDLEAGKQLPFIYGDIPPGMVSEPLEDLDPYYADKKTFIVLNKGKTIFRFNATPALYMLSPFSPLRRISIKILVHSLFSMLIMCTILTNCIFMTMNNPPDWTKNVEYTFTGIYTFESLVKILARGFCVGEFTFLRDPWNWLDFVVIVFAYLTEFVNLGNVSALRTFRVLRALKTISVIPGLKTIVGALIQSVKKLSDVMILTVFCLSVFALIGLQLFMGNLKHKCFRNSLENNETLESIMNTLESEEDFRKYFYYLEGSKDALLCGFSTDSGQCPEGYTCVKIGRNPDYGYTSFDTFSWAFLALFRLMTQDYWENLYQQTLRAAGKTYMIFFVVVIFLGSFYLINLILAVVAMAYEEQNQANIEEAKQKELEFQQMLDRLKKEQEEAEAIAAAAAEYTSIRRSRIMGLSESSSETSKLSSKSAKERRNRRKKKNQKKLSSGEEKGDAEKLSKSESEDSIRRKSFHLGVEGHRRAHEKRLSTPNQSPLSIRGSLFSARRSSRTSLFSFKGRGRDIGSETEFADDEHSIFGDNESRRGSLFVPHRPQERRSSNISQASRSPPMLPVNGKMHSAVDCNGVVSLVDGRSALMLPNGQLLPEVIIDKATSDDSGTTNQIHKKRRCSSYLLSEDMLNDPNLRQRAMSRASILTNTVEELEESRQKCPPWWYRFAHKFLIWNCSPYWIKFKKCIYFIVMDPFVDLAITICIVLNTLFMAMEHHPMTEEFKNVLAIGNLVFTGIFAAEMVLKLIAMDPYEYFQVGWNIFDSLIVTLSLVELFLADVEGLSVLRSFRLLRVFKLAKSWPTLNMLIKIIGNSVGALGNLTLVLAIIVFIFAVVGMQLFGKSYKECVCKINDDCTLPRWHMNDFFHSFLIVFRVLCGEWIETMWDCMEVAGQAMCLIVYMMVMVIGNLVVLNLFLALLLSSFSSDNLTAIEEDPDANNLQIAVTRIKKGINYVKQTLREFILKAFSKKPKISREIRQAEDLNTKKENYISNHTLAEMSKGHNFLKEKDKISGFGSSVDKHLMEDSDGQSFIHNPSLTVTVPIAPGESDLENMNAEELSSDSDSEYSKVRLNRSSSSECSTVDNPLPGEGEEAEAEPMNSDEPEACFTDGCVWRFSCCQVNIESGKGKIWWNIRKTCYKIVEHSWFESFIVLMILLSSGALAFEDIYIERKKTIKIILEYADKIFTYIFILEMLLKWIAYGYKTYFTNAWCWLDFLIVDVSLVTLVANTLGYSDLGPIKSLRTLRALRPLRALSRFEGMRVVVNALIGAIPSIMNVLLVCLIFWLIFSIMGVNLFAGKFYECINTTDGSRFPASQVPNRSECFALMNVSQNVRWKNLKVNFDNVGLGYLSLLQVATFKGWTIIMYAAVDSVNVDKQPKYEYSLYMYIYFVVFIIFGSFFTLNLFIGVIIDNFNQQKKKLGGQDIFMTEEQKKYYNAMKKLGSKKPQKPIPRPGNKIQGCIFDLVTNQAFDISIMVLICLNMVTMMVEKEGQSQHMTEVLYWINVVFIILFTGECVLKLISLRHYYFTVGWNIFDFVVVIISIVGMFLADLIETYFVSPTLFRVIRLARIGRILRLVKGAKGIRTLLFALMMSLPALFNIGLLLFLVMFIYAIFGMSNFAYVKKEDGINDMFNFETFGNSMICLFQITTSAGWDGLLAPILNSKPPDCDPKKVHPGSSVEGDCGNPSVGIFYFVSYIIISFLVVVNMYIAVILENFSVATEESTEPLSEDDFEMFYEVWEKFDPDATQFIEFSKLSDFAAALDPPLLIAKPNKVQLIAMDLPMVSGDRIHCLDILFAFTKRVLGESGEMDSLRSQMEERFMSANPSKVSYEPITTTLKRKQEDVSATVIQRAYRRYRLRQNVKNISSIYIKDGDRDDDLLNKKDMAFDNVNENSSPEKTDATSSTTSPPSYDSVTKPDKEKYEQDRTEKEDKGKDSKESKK

[6] = target: T1, Sodium channel protein type 9 subunit alpha; test: Inhibition of Nav1.7 (unknown origin) expressed in CHO cells after 45 mins by FLIPR assay; assay type: cell-based

Which solubility kinetic [1] does the source give for `CN1c2ccc(-c3cccc([C@H](O)CO)n3)cc2CCc2cc(C(F)(F)F)ccc21` here?
Its solubility kinetic is 60 µM (≈ 24.9 µg/mL).

What about the solubility kinetic [2] of the same compound?
Its solubility kinetic is 0.1 µM (≈ 0.0414 µg/mL).

What about the remaining at 0.5 h, 1 µM [3] of the same compound?
The remaining at 0.5 h, 1 µM was 72%.

And the remaining at 0.5 h, 1 µM [4]?
The remaining at 0.5 h, 1 µM was 79%.

With `OC[C@@H](O)c1cccc(-c2ccc3c(c2)CNc2cc(C(F)(F)F)ccc2O3)n1` as the compound, how does the solubility kinetic [1] read?
Its solubility kinetic is 80 µM (≈ 32.2 µg/mL).

What about the solubility kinetic [2] of the same compound?
Its solubility kinetic is 12 µM (≈ 4.83 µg/mL).

With `CN1Cc2cc(-c3cccc([C@H](O)CO)n3)ccc2Oc2ccc(C(F)(F)F)cc21` as the compound, how does the solubility kinetic [1] read?
Its solubility kinetic is 70 µM (≈ 29.1 µg/mL).

What about the solubility kinetic [2] of the same compound?
The solubility kinetic was 0.4 µM (≈ 0.167 µg/mL).

And the remaining at 0.5 h, 1 µM [3]?
Its remaining at 0.5 h, 1 µM is 94%.

And the remaining at 0.5 h, 1 µM [4]?
Its remaining at 0.5 h, 1 µM is 98%.

What about the Ki [5] of the same compound?
Its Ki is 440 nM.

Which solubility kinetic [1] does the source give for `CN1Cc2cc(C(F)(F)F)ccc2Oc2ccc(-c3cccc([C@H](O)CO)n3)cc21` here?
The solubility kinetic was 73 µM (≈ 30.4 µg/mL).

What about the solubility kinetic [2] of the same compound?
The solubility kinetic was 6 µM (≈ 2.5 µg/mL).

What about the remaining at 0.5 h, 1 µM [3] of the same compound?
The remaining at 0.5 h, 1 µM was 74%.

And the remaining at 0.5 h, 1 µM [4]?
Its remaining at 0.5 h, 1 µM is 91%.

And the Ki [5]?
Its Ki is 560 nM.

Which solubility kinetic [1] does the source give for `NC(=O)c1cccc(-c2ccc3c(c2)CCc2cc(Cl)ccc2N3)n1` here?
The solubility kinetic was 0.2 µM (≈ 0.07 µg/mL).

What does the source list for `NC(=O)CN1Cc2cc(-c3cccc([C@H](O)CO)n3)ccc2Oc2ccc(C(F)(F)F)cc21`?
IC50 [6]: 1800 nM; solubility kinetic [1]: 80 µM (≈ 36.8 µg/mL); solubility kinetic [2]: 1 µM (≈ 0.459 µg/mL); remaining at 0.5 h, 1 µM [3]: 91%; remaining at 0.5 h, 1 µM [4]: 83%

Which solubility kinetic [1] does the source give for `CN1Cc2cc(-c3cccc([C@H](O)[C@@H](O)C(N)=O)n3)ccc2Oc2ccc(C(F)(F)F)cc21` here?
The solubility kinetic was 70 µM (≈ 32.2 µg/mL).

What about the solubility kinetic [2] of the same compound?
Its solubility kinetic is 0.8 µM (≈ 0.368 µg/mL).

And the remaining at 0.5 h, 1 µM [3]?
The remaining at 0.5 h, 1 µM was 93%.

And the remaining at 0.5 h, 1 µM [4]?
Its remaining at 0.5 h, 1 µM is 94%.

What about the Ki [5] of the same compound?
Its Ki is 920 nM.

Which IC50 [6] does the source give for `CCN1c2ccc(Cl)cc2CCc2cc(-c3cccc(C(N)=O)n3)ccc21` here?
The IC50 was > 10000 nM.

What about the solubility kinetic [1] of the same compound?
Its solubility kinetic is 0.2 µM (≈ 0.0756 µg/mL).

Which solubility kinetic [1] does the source give for `CC(=O)N1c2ccc(Cl)cc2CCc2cc(-c3cccc(C(N)=O)n3)ccc21` here?
The solubility kinetic was 12 µM (≈ 4.7 µg/mL).

And the solubility kinetic [2]?
Its solubility kinetic is 7 µM (≈ 2.74 µg/mL).

For `NC(=O)N1c2ccccc2C=Cc2ccccc21` [CARBAMAZEPINE], which solubility kinetic [1] is on record?
Its solubility kinetic is 75 µM (≈ 17.7 µg/mL).

And the solubility kinetic [2]?
The solubility kinetic was 74 µM (≈ 17.5 µg/mL).

And the remaining at 0.5 h, 1 µM [3]?
The remaining at 0.5 h, 1 µM was 37%.

And the remaining at 0.5 h, 1 µM [4]?
The remaining at 0.5 h, 1 µM was 38%.
